pIC50: −log10 of the molar value. Several values for one entry are separate records, joined by “and”; a condition that tells them apart may be missing. Equal entries are not always repeated.
Tested on: MDA-MB-231 multicell spheroids, viability (%T/C)
Test: Anticancer human tumor MDA-MB-231 cell line growth inhibition [IpAb];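 note: viability read after seven days of drug exposure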;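 for viability, T/C: 100% = DMSO vehicle control viability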
Settings: for viability, T/C: stronger effect = lower value
From the text: Combinatorial screen of targeted agents with ipatasertib and abemaciclib in multi-cell type tumor spheroids
A high-throughput screen of multi-cell type tumor spheroids was designed to identify active combinations of targeted small molecules and ipatasertib or abemaciclib. Complex spheroids include a stromal component modeled by human endothelial cells (HUVEC) and fibroblasts modeled by human mesenchymal stem cells (MSCs). The concentration ranges selected for each drug and investigational agent were based upon clinically achievable concentrations if the clinical Cmax of the agent was known.
Compounds. The drugs and investigational agents: ipatasertib (NSC767898), abemaciclib(NSC768073), selumetinib (NSC741078), trametinib (758246), adavosertib (NSC754352), everolimus (NSC733504), sapanisertib (NSC764658), vemurafenib (NSC761431), venetoclax (NSC766270), copanlisib (NSC809693), apelisib (NSC765974), palbociblib (NSC758247), vemurafenib (NSC761431), dabrafenib (NSC764134), ravoxertinib (NSC781343), BMS-387032 (NSC767048), sotorasib (NSC818433), talazoparib (NSC767125) and afursertib (NSC778305), were obtained from the National Cancer Institute (NCI) Developmental Therapeutics Program Chemical Repository. The FDA-approved anticancer drug set is available from the NCI Developmental Therapeutics Program. […] The stock solutions were prepared in dimethyl sulfoxide (DMSO, Sigma-Aldrich, St. Louis, MO, cat. D2650) at 800-fold the tested concentration and stored at -70 degrees C prior to their use. All drugs and investigational agents were tested over a range starting from a high concentration at or near the clinical Cmax and decreasing in half-log increments. If the clinical Cmax for an agent had not been determined, the highest concentration tested was 10 microM.
NCI60 Cell Culture. NCI60 cell lines were obtained from the NCI Developmental Therapeutics Program Tumor Repository. For each lot of cells, the Repository performed Applied Biosystems AmpFLSTR Identifiler testing with PCR amplification to confirm consistency with the published Identifier STR profile for each cell line. Cells were kept in continuous culture for no more than 20 passages. The optimal seeding densities for each of the cell lines at each time point assessed were determined prior to performing the concentration response studies. Briefly, the NCI60 human tumor lines were grown as monolayers in RPMI 1640 medium supplemented with 10% FBS and 2 mmol/L L-glutamine.
An additional 9 lines were from the NCI60 cell line panel including MDA-MB-231 breast carcinoma, MDA-MB-468 breast carcinoma, MCF7 breast carcinoma, Hs578T breast carcinoma, MALME-3M melanoma, SK-MEL-2 melanoma, SK-OV-3 ovarian carcinoma, DU-145 prostate carcinoma, PC-3 prostate carcinoma, all cell lines along with major genetic alterations are listed on Table 2. Pooled donor human umbilical vein endothelial cells (HUVEC, Lonza, cat. CC-2519) and human mesenchymal stem cells (hMSC, Lonza, cat. PT-2501) were purchased from Lonza (Walkersville, MD).
PDMR cell lines were grown in complete medium (DC medium): Dulbecco's modified Eagle's medium (DMEM)/F12 supplemented with 5% fetal bovine serum (FBS), 2 mM L-glutamine, 100 U/mL penicillin and 100 µg/ml streptomycin, 0.4 µg/ml hydrocortisone, 10 ng/ml epidermal growth factor (EGF) recombinant human protein, 24 µg/mL adenine, and 0.1 mg/mL primocin. During culture from frozen stock vials, PDMR cells were cultured in the same medium containing 10 µM Y-27632 (see Table 3). The PDCs were cultured in complete DMEM/F12 media without 10 microM Y-27632 dihydrochloride for at least two passages prior to the screen. The pooled donor HUVEC and hMSC were cultured in endothelial cell growth medium 2 (PromoCell, Heidelberg, Germany, cat. C-22011) and mesenchymal stem cell growth medium 2 (PromoCell, cat. C-28009), respectively. For all experiments, HUVEC and hMSC were used at passages </=5.
[…]

[1] = curve of first compound, second compound 0.1 µM
[2] = curve of first compound, second compound 0.316 µM
[3] = curve of first compound, second compound 1 µM
[4] = second compound 0.1 µM, first compound 0.0316 µM
[5] = second compound 0.1 µM, first compound 0.1 µM
[6] = second compound 0.316 µM, first compound 0.0316 µM
[7] = second compound 0.316 µM, first compound 0.1 µM
[8] = second compound 1 µM, first compound 0.0316 µM
[9] = second compound 1 µM, first compound 0.1 µM

Cn1ncc(Cl)c1-c1cc(C(=O)NC(CN)Cc2cccc(F)c2)sc1Cl (configuration not stated) + CC(C)NCC(C(=O)N1CCN(c2ncnc3c2C(C)CC3O)CC1)c1ccc(Cl)cc1
pIC50 [1]: 5.80 | pIC50 [2]: 5.90 | pIC50 [3]: 5.96 | pIC50 (curve of first compound, second compound 3.16 µM): 6.33 | pIC50 (curve of first compound, second compound 10 µM): > 7.50 | viability, T/C [4]: 99.1% | viability, T/C [5]: 88% | viability, T/C (second compound 0.1 µM, first compound 0.316 µM): 80.3% | viability, T/C (second compound 0.1 µM, first compound 1 µM): 61.8% | viability, T/C (second compound 0.1 µM, first compound 3.16 µM): 33% | viability, T/C (second compound 0.1 µM, first compound 10 µM): 0.11% | viability, T/C [6]: 70.7% | viability, T/C [7]: 79.4% | viability, T/C (second compound 0.316 µM, first compound 0.316 µM): 71.2% | viability, T/C (second compound 0.316 µM, first compound 1 µM): 49% | viability, T/C (second compound 0.316 µM, first compound 3.16 µM): 34.3% | viability, T/C (second compound 0.316 µM, first compound 10 µM): 0.12% | viability, T/C [8]: 74.1% | viability, T/C [9]: 71.9% | viability, T/C (second compound 1 µM, first compound 0.316 µM): 63.1% | viability, T/C (second compound 1 µM, first compound 1 µM): 50.6% | viability, T/C (second compound 1 µM, first compound 3.16 µM): 32.8% | viability, T/C (second compound 1 µM, first compound 10 µM): 0.11% | viability, T/C (second compound 3.16 µM, first compound 0.0316 µM): 57.3% | viability, T/C (second compound 3.16 µM, first compound 0.1 µM): 59.1% | viability, T/C (second compound 3.16 µM, first compound 0.316 µM): 49.7% | viability, T/C (second compound 3.16 µM, first compound 1 µM): 43% | viability, T/C (second compound 3.16 µM, first compound 3.16 µM): 33.6% | viability, T/C (second compound 3.16 µM, first compound 10 µM): 0.34% | viability, T/C (second compound 10 µM, first compound 0.0316 µM): 42.2% | viability, T/C (second compound 10 µM, first compound 0.1 µM): 41.1% | viability, T/C (second compound 10 µM, first compound 0.316 µM): 37.5% | viability, T/C (second compound 10 µM, first compound 1 µM): 37.5% | viability, T/C (second compound 10 µM, first compound 3.16 µM): 26.1% | viability, T/C (second compound 10 µM, first compound 10 µM): 0.49%

Cn1ncnc1[C@H]1c2n[nH]c(=O)c3cc(F)cc(c23)N[C@@H]1c1ccc(F)cc1
viability, T/C (compound 0.000316 µM): 99.2% and 96.9% | viability, T/C (compound 0.001 µM): 92.1% and 94% | viability, T/C (compound 0.00316 µM): 81.4% and 85.3% | viability, T/C (compound 0.01 µM): 79.3% and 79.6% | viability, T/C (compound 0.0316 µM): 77.7% and 75.4% | viability, T/C (compound 0.1 µM): 67.3% and 69.8% | pIC50 (curve of compound): < 7.00

Cn1ncnc1[C@H]1c2n[nH]c(=O)c3cc(F)cc(c23)N[C@@H]1c1ccc(F)cc1 + CCN1CCN(Cc2ccc(Nc3ncc(F)c(-c4cc(F)c5nc(C)n(C(C)C)c5c4)n3)nc2)CC1
pIC50 (curve of first compound, second compound 0.01 µM): < 7.00 | pIC50 (curve of first compound, second compound 0.0316 µM): < 7.00 | pIC50 [1]: 7.42 | pIC50 [2]: > 9.50 | pIC50 [3]: > 9.50 | viability, T/C (second compound 0.01 µM, first compound 0.000316 µM): 86.5% | viability, T/C (second compound 0.01 µM, first compound 0.001 µM): 85.5% | viability, T/C (second compound 0.01 µM, first compound 0.00316 µM): 79.6% | viability, T/C (second compound 0.01 µM, first compound 0.01 µM): 70.9% | viability, T/C (second compound 0.01 µM, first compound 0.0316 µM): 69.2% | viability, T/C (second compound 0.01 µM, first compound 0.1 µM): 65.9% | viability, T/C (second compound 0.0316 µM, first compound 0.000316 µM): 74.8% | viability, T/C (second compound 0.0316 µM, first compound 0.001 µM): 72.1% | viability, T/C (second compound 0.0316 µM, first compound 0.00316 µM): 65.2% | viability, T/C (second compound 0.0316 µM, first compound 0.01 µM): 60% | viability, T/C (second compound 0.0316 µM, first compound 0.0316 µM): 59.1% | viability, T/C (second compound 0.0316 µM, first compound 0.1 µM): 55% | viability, T/C (second compound 0.1 µM, first compound 0.000316 µM): 58.8% | viability, T/C (second compound 0.1 µM, first compound 0.001 µM): 56.4% | viability, T/C (second compound 0.1 µM, first compound 0.00316 µM): 51.5% | viability, T/C (second compound 0.1 µM, first compound 0.01 µM): 51.1% | viability, T/C [4]: 51.5% | viability, T/C [5]: 48.7% | viability, T/C (second compound 0.316 µM, first compound 0.000316 µM): 46.5% | viability, T/C (second compound 0.316 µM, first compound 0.001 µM): 46.6% | viability, T/C (second compound 0.316 µM, first compound 0.00316 µM): 43.9% | viability, T/C (second compound 0.316 µM, first compound 0.01 µM): 43.3% | viability, T/C [6]: 42.9% | viability, T/C [7]: 40.4% | viability, T/C (second compound 1 µM, first compound 0.000316 µM): 48% | viability, T/C (second compound 1 µM, first compound 0.001 µM): 49.3% | viability, T/C (second compound 1 µM, first compound 0.00316 µM): 50.2% | viability, T/C (second compound 1 µM, first compound 0.01 µM): 46.3% | viability, T/C [8]: 48.5% | viability, T/C [9]: 46.9%

Reference: PubChem BioAssay AID2060328 (Molecular Pharmacology Branch, DTP, NCI, 2025)
